# From US8741910B2, “Soluble guanylate cyclase activators” (Merck Sharp & Dohme Corp., priority 2008, dated 2014)
# Target: T1, sGC α1/β1 heterodimer (Homo sapiens, UniProt Q02108+Q02153)
# T1 construct: expressed in transfected cells; host or cells: CHO-K1 (clone #7, CHO-K1/sGC)
# T1 sequence (Q02108 1-690): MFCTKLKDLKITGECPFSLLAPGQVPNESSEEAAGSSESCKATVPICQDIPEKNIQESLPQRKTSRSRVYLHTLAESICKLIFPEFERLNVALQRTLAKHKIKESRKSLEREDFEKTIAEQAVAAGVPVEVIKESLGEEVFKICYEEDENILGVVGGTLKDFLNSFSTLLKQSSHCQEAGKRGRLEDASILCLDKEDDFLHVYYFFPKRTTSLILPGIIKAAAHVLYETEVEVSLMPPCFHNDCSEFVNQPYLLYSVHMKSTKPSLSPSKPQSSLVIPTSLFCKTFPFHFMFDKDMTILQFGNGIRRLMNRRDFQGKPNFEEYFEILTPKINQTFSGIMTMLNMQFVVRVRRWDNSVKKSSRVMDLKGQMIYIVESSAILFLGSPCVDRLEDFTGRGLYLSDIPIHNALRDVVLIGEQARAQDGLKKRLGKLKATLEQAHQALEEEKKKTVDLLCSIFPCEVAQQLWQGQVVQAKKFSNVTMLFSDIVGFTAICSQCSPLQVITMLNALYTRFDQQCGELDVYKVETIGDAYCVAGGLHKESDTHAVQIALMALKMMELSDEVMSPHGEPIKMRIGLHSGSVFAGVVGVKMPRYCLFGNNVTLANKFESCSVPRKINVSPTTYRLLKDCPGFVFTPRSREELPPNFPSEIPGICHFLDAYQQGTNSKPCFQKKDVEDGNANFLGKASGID
# T1 sequence (Q02153 1-619): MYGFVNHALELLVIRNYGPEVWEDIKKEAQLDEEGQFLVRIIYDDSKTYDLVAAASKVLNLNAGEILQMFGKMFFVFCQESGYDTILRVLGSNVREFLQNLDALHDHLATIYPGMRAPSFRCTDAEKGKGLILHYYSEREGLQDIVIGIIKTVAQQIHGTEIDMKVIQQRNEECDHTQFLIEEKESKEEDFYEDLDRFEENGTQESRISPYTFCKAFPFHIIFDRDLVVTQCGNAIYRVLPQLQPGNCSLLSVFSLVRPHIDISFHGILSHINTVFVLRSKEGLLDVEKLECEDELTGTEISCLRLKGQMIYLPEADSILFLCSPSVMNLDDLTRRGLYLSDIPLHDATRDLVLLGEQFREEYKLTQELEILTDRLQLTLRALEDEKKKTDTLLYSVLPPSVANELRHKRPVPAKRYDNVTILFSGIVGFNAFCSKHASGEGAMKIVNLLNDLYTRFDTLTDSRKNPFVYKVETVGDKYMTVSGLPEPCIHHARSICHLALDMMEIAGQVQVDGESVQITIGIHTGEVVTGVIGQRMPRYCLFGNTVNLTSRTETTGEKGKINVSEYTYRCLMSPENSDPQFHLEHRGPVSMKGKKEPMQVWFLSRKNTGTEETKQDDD
# Experiment: Cell-Based sGC Functional Assay (CASA Assay)
# Conditions: CHO-K1/sGC cells, intracellular cGMP by HTRF, 1 hr at 37 °C
# Source text: Increases in cGMP levels affect several physiological processes including vasorelaxation through multiple downstream pathways. […] Heme-dependent activators (HDAs) preferentially activate sGC containing a ferrous heme group. To determine the effect of sGC activators on enzyme activity, the CASA assay was developed to monitor the generation of cGMP in a cell line that stably expresses the heterodimeric sGC protein.
# A CHO-K1 cell line stably expressing the sGC α1/β1 heterodimer was generated using a standard transfection protocol. CHO-K1 cells were transfected with plasmids pIREShyghsGCα1 and pIRESneo-hsGCβ1 simultaneously using FUGENE reagent. Clones that stably express both subunits were selected with hygromycin and neomycin for ˜2 weeks. Clone #7 was chosen for the assay and was designated CHO-K1/sGC. CHO-K1/sGC cells were maintained in F-K12 medium containing 10% heat-inactivated Fetal Bovine Serum (FBS), 100 μg/mL penicillin/streptomycin, 0.5 mg/mL hygromycin and 0.25 mg/mL G418. […] IBMX (3-isobutyl-1-methylxanthin, 0.5 mM) was added to inhibit degradation of cGMP. Compounds were diluted from DMSO stock solutions and added to the assay at a final DMSO concentration of 1%. […] At the end of the incubation period, the reaction was terminated and the cells were lysed. The level of intracellular cGMP was determined using an HTRF-based assay kit (CisBio, 62GM2PEC), which detects the displacement of a fluorescence labeled cGMP from its specific antibody.
row,EC50 [nM],SMILES
1,31,"CC1(C)C(=O)Nc2nc(-c3nc(Cc4c(F)ccc(F)c4F)n4cc(F)ccc34)nc(N)c21 [Example 60, 4-amino-2-[6-fluoro-3-(2,3,6-trifluorobenzyl)imidazo[1,5-a]pyridin-1-yl]-5,5-dimethyl-5,7-dihydro-6H-pyrrolo[2,3-d]pyrimidin-6-one]"
2,24,"CC1(C)C(=O)Nc2nc(-c3nc(Cc4c(F)ccc(F)c4F)n4cc(Cl)ccc34)nc(N)c21 [Example 59, 4-amino-2-[6-chloro-3-(2,3,6-trifluorobenzyl)imidazo[1,5-a]pyridin-1-yl]-5,5-dimethyl-5,7-dihydro-6H-pyrrolo[2,3-d]pyrimidin-6-one]"
3,83,"CC1(C)C(=O)Nc2nc(-c3nn(CCC(F)(F)C(F)(F)F)c4cc(Cl)ccc34)nc(N)c21 [Example 111, 4-amino-2-[6-chloro-1-(3,3,4,4,4-pentafluorobutyl)-1H-indazol-3-yl]-5,5-dimethyl-5,7-dihydro-6H-pyrrolo[2,3-d]pyrimidin-6-one]"
